Key:
uterine leiomyomata [1] = details: cited from earlier work
uterine leiomyomata [2] = assay: Clinical study of 2.5 mg mifepristone for the treatment of uterine leiomyomata (Example 1); format: in vivo, human; details: 2.5 mg daily, three months
Experimental: The study was conducted at a single site in Rochester, N.Y. Subjects: Inclusion criteria for the study included that subjects be (i) female; (ii) 18 years of age to premenopausal; and (iii) willing and able to give informed consent and comply with study requirements; and have (i) at least moderate symptoms of menorrhagia and/or pelvic pain/pressure; (ii) a total uterine volume greater than or equal to 160 cubic centimeters (cc) by ultrasound measurement; (iii) at least one leiomyomata ≧2.5 cm in size; (iv) a score of equal to or greater than 39 on the Uterine Fibroid Symptom and Quality of Life Scale; (v) declined standard treatment options for symptomatic leiomyomata; and (vi) agreed to use a barrier method (condoms, diaphragms) or other effective non-hormonal method of contraception (abstinence, sterilization) throughout participation in the study. Exclusion criteria for the study included: (i) current or planned pregnancy during the study period; (ii) menopausal, as indicated by follicle-stimulating hormone (FSH) level of the reference laboratory; (iii) currently breast-feeding; (iv) untreated abnormal pap smear; (v) presence of conditions other than leiomyomata contributing to pain and/or bleeding; (vi) hemoglobin […]; (vii) presence of […] masses or tenderness requiring further evaluation or surgery; (viii) grade III or IV hydronephrosis by ultrasound; (ix) severe, active mental disorder; […] (xi) current or recent (within the last three months) use of oral systemic corticosteroids, hormones (including estrogens, progestins, oral contraceptives), danazol, anticoagulants, or herbal or botanical supplements with possible hormonal effects; (xii) use within the past six months of GnRH analogs or Depo-Provera®; and (xiii) current or planned use during the study of any of the following medications or products: ketoconazole, itraconazole, erythromycin, grapefruit juice, rifampin, St. John's Wort, phenytoin, phenobarbital or carbamazepine Primary recruitment of subjects occurred through direct advertising and physician referrals. Women who were successfully prescreened were contacted by telephone and invited to an screening session/orientation. Prospective subjects were provided with a verbal and written description of the study and requirements for participation. Written informed consent was obtained from each participant at the screening session/orientation, and medical record releases were obtained and reviewed by the project gynecologist. Participants who gave consent were assigned a study ID number and asked to proceed further with the screening session. […] During the screening session the following information was collected: Physical Examination: Height, weight, blood pressure, pulse readings, examination of the breasts, heart, lungs, abdomen, and complete gynecologic examination including bi-manual at screening session/orientation (baseline). Height, weight, blood pressure, pulse readings and examination of the breasts. Blood samples: Negative pregnancy test and normal liver function testing (ALT, AST), hemoglobin and FSH levels. Ultrasonography: All subjects underwent abdominal and vaginal ultrasonography and uterine artery and leiomyomata blood flow assessment. Specifically, uterine leiomyomata size was assessed by transabdominal and/or transvaginal sonography by a single, certified and experienced ultrasonographer. Combined abdominal and vaginal ultrasonography was the standard for assessing leiomyomata size. […]

[3] = molecular target: glucocorticosteroid receptor (GR) (Homo sapiens, UniProt P04150); details: cited from earlier work
uterine leiomyomata [4] = assay: Randomized, double-blinded, placebo-controlled study of mifepristone 5 mg daily for symptomatic uterine leiomyomata (Example 11); format: in vivo, human
Description: The Study and Results are described in […] et al., Obstetrics & Gynecology, 108(6) (2006), hereby incorporated by reference in its entirety. […] Women were excluded if they were pregnant or intended to become pregnant during the next 6 months or had major medical morbidity or severe anemia, active mental illness, elevated liver enzymes, or substance abuse. Participants agreed to use barrier contraception and not to use hormonal or surgical treatments for leiomyomata during the course of the trial. Analgesic use was permitted. […] Secondary measures included global health status (Medical Outcomes 36-item Short Form [SF-36] survey) and global pain (McGill Pain Questionnaire). Each questionnaire was administered at baseline, 1 month, 3 months, and 6 months, except the McGill Pain Questionnaire, which was assessed monthly. Bleeding was assessed by using daily menstrual logs and pictorial bleeding charts. A monthly blood loss index was calculated from menstrual history by assigning values […] to each day of spotting, indicating light, moderate, and heavy flow, respectively, and then summing the results. Monthly assessments of the presence and intensity of likely leiomyoma symptoms (including pelvic pain, pelvic pressure, bladder pressure, urinary frequency, low back pain, rectal pain, and pain with intercourse) and drug adverse effects (including hot flushes, headache, nausea, vomiting, mood swings, diarrhea, decreased libido, weakness, fatigue, and nervousness) were performed with a standardized instrument consisting of 5-point Likert scale items. […] The uterus was measured in three planes and a total volume calculated. The five largest leiomyomata were identified, a volume calculated for each of the leiomyomata, and the results summed. Baseline uterine volume was subtracted from each subsequently measured uterine volume, and volume changes were analyzed. The final analysis was powered to detect a 25-point difference in mean Uterine Fibroid Symptom Quality of Life scores. Differences in Uterine Fibroid Symptom Quality of Life scores, ultrasound measures, bleeding, pain, and other longitudinal measures were assessed by using individual growth curve models. […] Approximate t tests were used to test hypotheses of between-group and within-group differences in outcomes.

[5] = test system: breakthrough uterine bleeding in new starters of DMPA; assay: Mifepristone for prevention of breakthrough bleeding in new starters of DMPA (Example 9); format: in vivo, human; details: 50 mg capsule every 14 days with DMPA
[6] = test system: endometrial receptors and breakthrough bleeding; details: women on Norplant, mifepristone orally; Cheng et al.; cited from earlier work

Sequence of glucocorticosteroid receptor (GR) (P04150 whole entry): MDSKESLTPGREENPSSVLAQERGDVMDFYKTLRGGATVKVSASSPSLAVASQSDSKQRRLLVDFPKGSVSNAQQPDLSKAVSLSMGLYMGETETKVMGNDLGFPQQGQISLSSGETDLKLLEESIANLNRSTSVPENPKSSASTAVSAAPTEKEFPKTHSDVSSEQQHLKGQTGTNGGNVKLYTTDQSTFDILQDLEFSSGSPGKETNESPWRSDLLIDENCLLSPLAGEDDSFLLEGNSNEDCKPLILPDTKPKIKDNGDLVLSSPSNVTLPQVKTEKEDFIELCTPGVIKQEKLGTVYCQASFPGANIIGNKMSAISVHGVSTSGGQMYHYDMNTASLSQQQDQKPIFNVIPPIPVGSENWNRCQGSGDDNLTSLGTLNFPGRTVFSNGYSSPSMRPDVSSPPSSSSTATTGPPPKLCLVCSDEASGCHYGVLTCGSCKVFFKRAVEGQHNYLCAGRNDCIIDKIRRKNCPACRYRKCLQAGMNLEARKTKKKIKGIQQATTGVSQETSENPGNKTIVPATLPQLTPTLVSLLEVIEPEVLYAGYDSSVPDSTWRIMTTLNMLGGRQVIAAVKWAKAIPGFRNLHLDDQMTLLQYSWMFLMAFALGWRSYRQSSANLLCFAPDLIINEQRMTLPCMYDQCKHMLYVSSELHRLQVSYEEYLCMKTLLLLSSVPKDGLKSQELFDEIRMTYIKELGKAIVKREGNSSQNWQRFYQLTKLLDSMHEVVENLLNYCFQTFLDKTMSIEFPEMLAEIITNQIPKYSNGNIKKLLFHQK

CC#C[C@]1(O)CC[C@H]2[C@@H]3CCC4=CC(=O)CCC4=C3[C@@H](c3ccc(N(C)C)cc3)C[C@@]21C [mifepristone, 17-hydroxy-11-(4-dimethylaminophenyl)-17-(prop-1-ynyl)estra-4,9-dien-3-one]
effectiveness (uterine leiomyomata [1]; 5 mg administered for 6 months, Eisinger et al.): confirmed the effectiveness
uterine leiomyomata size (uterine leiomyomata [1]; Eisinger et al. 2003): reduce uterine leiomyomata size
uterine shrinkage and rates of amenorrhea compared with GnRH agonists (uterine leiomyomata [1]; Kettel et al., Murphy et al.): equivalent amount of uterine shrinkage and rates of amenorrhea to GnRH agonists
side effects of the lower described doses (uterine leiomyomata [1]; doses such as 10 mg): increased hot flashes
side effects of the highest described doses (uterine leiomyomata [1]; doses such as 50 mg): can increase the prevalence and severity of hot flashes, can cause an elevation in hepatic enzymes
amenorrhea (uterine leiomyomata [2]): all subjects became amenorrheic
mean decrease in leiomyomata volume (uterine leiomyomata [2]): 26%
mean decrease in uterine volume (uterine leiomyomata [2]): 19%
mean leiomyomata volume (aggregated) after treatment (uterine leiomyomata [2]; baseline 187): 139
mean uterine volume after treatment (uterine leiomyomata [2]; baseline 795 cc): 653 cc
affinity for the glucocorticosteroid receptor (GR) [3]: high affinity
period in which most of the improvement in symptoms and quality of life occurred (uterine leiomyomata [4]; 5 mg daily for 26 weeks, first weeks of treatment): 8-12 weeks
SF-36 subscales (uterine leiomyomata [4]; 5 mg daily, 6 months): improvements in energy and fatigue, health status change, and pain
endometrial hyperplasia or other significant endometrial pathology (uterine leiomyomata [4]; 5 mg daily, 6 months): No endometrial hyperplasia or other significant endometrial pathology was observed
liver function (uterine leiomyomata [4]; 5 mg daily, 6 months): None of the participants showed abnormal liver function
reduction in leiomyoma size vs placebo (uterine leiomyomata [4]; 5 mg daily, 6 months): statistically significant differences in reduction in leiomyoma size
leiomyoma-specific quality of life and aspects (concern, activities, energy and mood, control, self-consciousness, sexual functioning) vs placebo (uterine leiomyomata [4]; 5 mg daily, 6 months, P<0.001 overall): Significant improvements
average decrease of uterine volume (uterine leiomyomata [4]; 5 mg daily, 6 months, P=0.02, placebo increased 73 mL): 200 mL
pain, McGill Pain Questionnaire (uterine leiomyomata [4]; 5 mg daily, 6 months, difference to placebo not statistically significant): decreases in pain
mean hemoglobin level after treatment (uterine leiomyomata [4]; 5 mg daily, 6 months, from 12.0 g/dL, P<0.001): 13.5 g/dL
potential medication adverse effects (uterine leiomyomata [4]; 5 mg daily, 6 months, incidence and severity not statistically different from placebo): uncommon
tolerability (uterine leiomyomata [4]; 5 mg daily, 6 months, low dropout rate): well tolerated
bleeding (uterine leiomyomata [4]; 5 mg daily, 6 months, not in placebo group): decreased markedly
mean Uterine Fibroid Symptoms Quality of Life increase (uterine leiomyomata [4]; 5 mg daily, 6 months, of a possible 100 points, range 0-86, placebo 16.7): 50.1 points
mean Uterine Fibroid Symptoms Quality of Life increase, percent (uterine leiomyomata [4]; 5 mg daily, 6 months, placebo 41%): 135%
average decrease of uterine volume adjusted for individual baseline volume (uterine leiomyomata [4]; 5 mg daily, 6 months, secondary regression, placebo increased 10%): 47%
cystic glandular dilatation of the endometria (uterine leiomyomata [4]; 5 mg daily, 6 months, treated women vs placebo): Higher rates
women anemic (hemoglobin below 12.0 g/dL) after six months (uterine leiomyomata [4]; 5 mg daily, 2 of 22, baseline 11 of 22 (50%), control 60%): 9%
women amenorrheic by the sixth month (uterine leiomyomata [4]; 5 mg daily, 9 of 22 women, none in placebo group): 41%
symptom severity score at 6 months (uterine leiomyomata [4]; 5 mg daily, from 67 at baseline, placebo 67 to 50): 21
monthly reports of symptoms (pelvic pain, pelvic pressure, bladder pressure, urinary frequency, low back pain, rectal pain, pain with intercourse) (uterine leiomyomata [4]; 5 mg daily, group difference significant only for pain with intercourse (P<0.05)): all showed improvements
median percentage days of bleeding ([5]; 1232 women-days, placebo 30%, p<0.05, results to date): 11%
adverse events ([5]; to date): no adverse events have occurred
breakthrough bleeding [6]: decreased breakthrough bleeding
endometrial estrogen receptor concentration [6]: increased endometrial estrogen receptor concentration
endometrial progesterone receptor concentration [6]: decreased endometrial progesterone receptor concentration
